Structures are written as SMILES. Where two headings read alike, the source gives them in different places. A value given as a limit tells only on which side of the number the result lay.

Test [1] has as its system parent untransformed BaF3 cells. Kind of test: Tritiated thymidine uptake cell proliferation assay, parental BaF3 (control). As to conditions: Mus musculus, 3[H]-thymidine uptake, 72 h, medium with IL-3, read-out: BaF parental IC50. It counts as cell-based. Summed up: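 Control lines were parental BaF3 in IL-3-supplemented medium and ALK-, Abl- or RET-negative U937, seeded at 10 000 cells/well with serial inhibitor dilutions for 72 h at 37 °C. ³H-thymidine (1 μCi/well) was added for the final 16 h; IC50 (μM) is the concentration halving uptake versus DMSO.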

Test [2] addresses T1, BaF3 cells transformed with the oncogenic fusion protein NPM/ALK (Homo sapiens, UniProt Q9UM73).
T1 construct: fused on or other part: P06748 (Nucleophosmin)
Kind of test: Tritiated thymidine uptake cell proliferation assay, BaF3 NPM/ALK. It counts as cell-based. As to conditions: 3[H]-thymidine uptake, 72 h; read-out: BaF NPM/ALK IC50. In short, it runs like this: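 Cells were seeded at 10 000/well with serial inhibitor dilutions or DMSO vehicle and incubated 72 h at 37 °C, with ^3[H]-thymidine (1 μCi/well) added for the final 16 h. Incorporation was read by β scintillation counting. IC50 (μM) is the concentration giving a 50% decrease in uptake versus controls.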

The target of test [3] is BaF3 cells transformed with the oncogenic fusion protein bcr-abl (Homo sapiens, UniProt P00519). Kind of test: Tritiated thymidine uptake cell proliferation assay, BaF3 BCR/ABL. The test is classed as cell-based. As to conditions: 3[H]-thymidine uptake, 72 h; read-out: BaF BCR/ABL IC50. As to the method: Inhibition of the Proliferation of Bcr/Abl Positive Cells
(§1) Method: Tritiated Thymidine Uptake Cell Proliferation Assay
(§2) The following procedure was used with parent untransformed BaF3 cells, BaF3 cells transformed with the oncogenic fusion protein bcr-abl, Abl-negative U937 cells, or Bcr-abl positive LAMA-84 cells. The parent untransformed BaF3 cells and Abl-negative U937 cells are used as controls. Cells were seeded in U-bottomed 96-well plates at 10 000 cells/well in a volume of 100 μL in supplemented medium. In the case of the parent untransformed BaF3 cells, the medium was supplemented with IL-3. Serial dilutions of inhibitors were added to the appropriate wells and volumes adjusted to 200 μL. Controls were treated with the equivalent volume of vehicle, DMSO, alone. Plates were incubated at 37° C. for 72 h. ^3[H]-thymidine (1 μCi/well) was added for the last 16 h of incubation. Cells were harvested on to paper filters and ^3[H]-thymidine incorporation was measured using a β scintillation counter (1430 MicroBeta, Wallac, Turku, Finland). The 50% inhibitory concentration (IC50) was defined as the concentration of inhibitor, expressed in micromolar, that gave a 50% decrease in ^3H-thymidine uptake compared with controls.

A further test has as its target T2, Recombinant Ret protein (Homo sapiens, UniProt P07949).
T2 construct: made in house; host or cells: Sf9 cells (baculovirus)
Nature of the test: RET kinase inhibitory activity, ELISA-based in vitro kinase assay. The test is classed as biochemical. As to conditions: purified Ret, 0.3 mM ATP. How it is done: Recombinant ALK kinase was expressed in Sf9 insect cells using the pBlueBacHis2C baculovirus vector system and purified using an anion exchange Fast Flow Q-sepharose column (Amersham-Pharmacia Biotech) followed by HiTrap™-nickel affinity column (Amersham-Pharmacia Biotech). Purified ALK protein was used to screen inhibitors in the ELISA-based kinase assay. A Nunc Immuno 96 well plate was incubated overnight at 37° C. with coating solution (125 μL/well) containing ALK peptide substrate ([…]) (SEQ ID NO: 1) at various concentrations in PBS. Wells were then washed with 200 μL of wash buffer (PBS-Tween 0.05%) and left to dry for at least 2 h at 37° C. The kinase reaction was performed in the presence of 50 mM Tris pH 7.5, 5 mM MnCl2, 5 mM MgCl2, 0.3 mM ATP and purified rALK in a total volume of 100 μL/well at 30° C. for 15 min. For inhibitor testing the reaction mix was preincubated with the inhibitor or solvent control for 10 min at room temperature before transferring to the ELISA plate. After the reaction wells were washed 5 times with 200 μL of wash buffer. Phosphorylated peptide was detected using 100 μL/well of a mouse monoclonal anti-phosphotyrosine antibody (clone 4G10 Upstate Biotech Ltd) diluted 1:2000 in PBS+4% BSA. After 30 min incubation at room temperature the antibody was removed and wells were washed as described above. 100 μL of a secondary antibody (anti-mouse IgG, Horseradish Peroxidase linked whole antibody, Amersham Pharmacia Biotech) diluted 1:1000 in PBS+4% BSA was added to each well and the plate was incubated again for 30 min at room temperature before washing as above. The plate was developed using 100 μL/well TMB Substrate Solution (Endogen) and the reaction was stopped by adding an equiv.ual volume of H2SO4 0.36 M. Finally, the absorbance was read at 450 nm using an Ultrospec® 300 spectrophotometer (Amersham-Pharmacia Biotech). The concentration of the test solution showing 50% inhibition as compared with the control was expressed as IC50 (μM).
38. RET Kinase Inhibitory Activity
Method: ELISA-Based In Vitro Kinase Assay
Recombinant Ret protein was expressed in Sf9 cells using the pBlueBacHis2C baculovirus expression vector. Ret was purified using an anion exchange Fast Flow Q-sepharose column (Amersham-Pharmacia Biotech) followed by HiTrap™-nickel affinity column (Amersham-Pharmacia Biotech). Purified Ret was used in the ELISA-based kinase assay to screen inhibitors as described above. The kinase reaction was performed in the presence of 50 mM Tris pH 7.5, 1 mM MnCl2, 5 mM MgCl2, 0.3 mM ATP, peptide substrate ([…]) (SEQ ID NO: 1) and purified Ret. The concentration of the test solution showing 50% inhibition as compared with the control was expressed as IC50 (μM).
(ELISA stands for enzyme-linked immunosorbent assay.)

For test [4], the system named is NPM/ALK positive SUDHL-1 cells. Kind of test: Tritiated thymidine uptake cell proliferation assay, SUDHL-1. Particulars: 3[H]-thymidine uptake, 72 h. The test is classed as cell-based. As to the method:
Inhibition of the proliferation of NPM/ALK positive cells
as §1
as §2, with “NPM/ALK, NPM/ALK positive SUDHL-1 cells, ALK-negative” for “bcr-abl, Abl-negative”, “NPM/ALK” for “or Bcr-abl”, “KARPAS-299” for “LAMA-84”, “Alk-negative” for “Abl-negative”, “^3[H]-thymidine” for “^3H-thymidine”

In test [5] the target is T3, Recombinant Abl T315I protein (Homo sapiens, UniProt P00519, T315I).
T3 construct: made in house; host or cells: Sf9 cells (baculovirus)
Nature of the test: Abl T315I mutant kinase inhibitory activity, ELISA-based in vitro kinase assay. It counts as biochemical. Particulars: purified Abl T315I, 0.3 mM ATP. In short, it runs like this: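 His-tagged human Abl T315I from Sf9 cells, preincubated 10 min at room temperature with inhibitor, then reacted on peptide-coated plates with 0.3 mM ATP, 1 mM MnCl2, 5 mM MgCl2 in 50 mM Tris pH 7.5. Phosphotyrosine detected by anti-pTyr/HRP ELISA at 450 nm; IC50 as 50% inhibition vs control.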

For the next test, the target named is T4, Recombinant ALK kinase (Homo sapiens, UniProt Q9UM73).
T4 construct: made in house; host or cells: Sf9 insect cells (baculovirus)
Nature of the test: ALK kinase inhibitory activity, ELISA-based in vitro kinase assay. It counts as biochemical. In short, it runs like this:
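Sf9-expressed, purified recombinant ALK phosphorylated a plate-coated peptide substrate with 0.3 mM ATP, Mn2+/Mg2+, pH 7.5, 15 min at 30° C, after 10 min inhibitor preincubation. Phosphotyrosine was detected by anti-pTyr ELISA (TMB, A450); IC50 in μM is the concentration giving 50% inhibition relative to control.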

The subject of the next test is ALK-negative U937 cells. Nature of the test: Tritiated thymidine uptake cell proliferation assay, U937 (control). It counts as cell-based. As to conditions: Homo sapiens, U-937; 3[H]-thymidine uptake, 72 h. As to the method:
as §1
The following procedure was used with parent untransformed BaF3 cells, BaF3 cells transformed with the oncogenic fusion protein NPM/ALK, NPM/ALK positive SUDHL-1 cells, ALK-negative U937 cells, NPM/ALK positive KARPAS-299 cells. The parent untransformed BaF3 cells and Alk-negative U937 cells are used as controls. Cells were seeded in U-bottomed 96-well plates at 10 000 cells/well in a volume of 100 μL in supplemented medium. In the case of the parent untransformed BaF3 cells, the medium was supplemented with IL-3. Serial dilutions of inhibitors were added to the appropriate wells and volumes adjusted to 200 μL. Controls were treated with the equivalent volume of vehicle, DMSO, alone. Plates were incubated at 37° C. for 72 h. ^3[H]-thymidine (1 μCi/well) was added for the last 16 h of incubation. Cells were harvested on to paper filters and ^3[H]-thymidine incorporation was measured using a β scintillation counter (1430 MicroBeta, Wallac, Turku, Finland). The 50% inhibitory concentration (IC50) was defined as the concentration of inhibitor, expressed in micromolar, that gave a 50% decrease in ^3[H]-thymidine uptake compared with controls. […]
as §2, with “RET-PTC2,” for “bcr-abl, Abl-negative U937 cells,”, “RET-negative 11937” for “Bcr-abl positive LAMA-84”, “RET-negative” for “Abl-negative”, “^3[H]-thymidine” for “^3H-thymidine”

Where [6] appears, read: purified rALK, 0.3 mM ATP, read-out: ALK IC50.
[7] abbreviates: repeated determinations, 1st, read-out: ALK IC50, 1st determination.
Where [8] appears, read: repeated determinations, 2nd or 'then'.

T1 sequence (Q9UM73 whole entry, change not shown, the tested form may be a part): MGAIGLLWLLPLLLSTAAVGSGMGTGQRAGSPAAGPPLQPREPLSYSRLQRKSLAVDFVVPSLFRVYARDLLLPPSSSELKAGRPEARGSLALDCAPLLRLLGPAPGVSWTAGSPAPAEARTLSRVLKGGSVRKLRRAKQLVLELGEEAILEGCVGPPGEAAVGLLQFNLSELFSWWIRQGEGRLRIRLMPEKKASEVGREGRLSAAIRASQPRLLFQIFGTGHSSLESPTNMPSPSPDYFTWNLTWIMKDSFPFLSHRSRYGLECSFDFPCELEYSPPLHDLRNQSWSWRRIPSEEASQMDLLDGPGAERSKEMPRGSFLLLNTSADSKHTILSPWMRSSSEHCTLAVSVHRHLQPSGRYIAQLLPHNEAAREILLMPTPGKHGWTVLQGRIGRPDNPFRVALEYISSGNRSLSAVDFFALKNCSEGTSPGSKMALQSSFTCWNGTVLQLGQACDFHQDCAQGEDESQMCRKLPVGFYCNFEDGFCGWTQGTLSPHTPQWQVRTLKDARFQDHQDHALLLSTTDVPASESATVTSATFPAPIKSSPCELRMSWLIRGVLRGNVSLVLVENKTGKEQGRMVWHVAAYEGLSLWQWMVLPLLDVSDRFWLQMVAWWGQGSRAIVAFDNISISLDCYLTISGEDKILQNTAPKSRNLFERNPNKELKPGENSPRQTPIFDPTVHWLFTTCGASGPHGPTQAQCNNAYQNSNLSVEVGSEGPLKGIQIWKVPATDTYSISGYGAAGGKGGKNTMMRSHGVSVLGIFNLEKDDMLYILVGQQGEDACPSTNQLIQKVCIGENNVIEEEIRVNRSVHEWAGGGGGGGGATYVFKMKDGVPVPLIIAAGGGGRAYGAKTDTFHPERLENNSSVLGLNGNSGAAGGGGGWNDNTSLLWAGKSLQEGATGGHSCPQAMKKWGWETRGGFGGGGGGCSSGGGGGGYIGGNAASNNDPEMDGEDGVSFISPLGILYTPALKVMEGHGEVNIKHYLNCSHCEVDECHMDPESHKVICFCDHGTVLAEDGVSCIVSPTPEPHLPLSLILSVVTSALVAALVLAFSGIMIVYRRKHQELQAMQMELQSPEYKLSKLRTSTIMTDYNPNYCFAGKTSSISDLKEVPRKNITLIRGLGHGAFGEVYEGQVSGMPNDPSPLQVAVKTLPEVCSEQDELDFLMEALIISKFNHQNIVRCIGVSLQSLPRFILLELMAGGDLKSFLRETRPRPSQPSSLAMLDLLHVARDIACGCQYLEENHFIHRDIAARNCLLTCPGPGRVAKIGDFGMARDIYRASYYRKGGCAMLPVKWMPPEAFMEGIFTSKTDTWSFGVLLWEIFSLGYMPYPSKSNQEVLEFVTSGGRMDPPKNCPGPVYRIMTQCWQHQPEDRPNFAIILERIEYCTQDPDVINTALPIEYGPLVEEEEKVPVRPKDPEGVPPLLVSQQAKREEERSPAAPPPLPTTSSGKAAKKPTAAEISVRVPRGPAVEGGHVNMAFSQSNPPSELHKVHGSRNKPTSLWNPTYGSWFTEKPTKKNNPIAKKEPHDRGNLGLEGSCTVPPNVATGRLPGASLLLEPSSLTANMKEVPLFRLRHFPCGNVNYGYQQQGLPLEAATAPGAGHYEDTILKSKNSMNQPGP
T4 sequence (Q9UM73 19-1620): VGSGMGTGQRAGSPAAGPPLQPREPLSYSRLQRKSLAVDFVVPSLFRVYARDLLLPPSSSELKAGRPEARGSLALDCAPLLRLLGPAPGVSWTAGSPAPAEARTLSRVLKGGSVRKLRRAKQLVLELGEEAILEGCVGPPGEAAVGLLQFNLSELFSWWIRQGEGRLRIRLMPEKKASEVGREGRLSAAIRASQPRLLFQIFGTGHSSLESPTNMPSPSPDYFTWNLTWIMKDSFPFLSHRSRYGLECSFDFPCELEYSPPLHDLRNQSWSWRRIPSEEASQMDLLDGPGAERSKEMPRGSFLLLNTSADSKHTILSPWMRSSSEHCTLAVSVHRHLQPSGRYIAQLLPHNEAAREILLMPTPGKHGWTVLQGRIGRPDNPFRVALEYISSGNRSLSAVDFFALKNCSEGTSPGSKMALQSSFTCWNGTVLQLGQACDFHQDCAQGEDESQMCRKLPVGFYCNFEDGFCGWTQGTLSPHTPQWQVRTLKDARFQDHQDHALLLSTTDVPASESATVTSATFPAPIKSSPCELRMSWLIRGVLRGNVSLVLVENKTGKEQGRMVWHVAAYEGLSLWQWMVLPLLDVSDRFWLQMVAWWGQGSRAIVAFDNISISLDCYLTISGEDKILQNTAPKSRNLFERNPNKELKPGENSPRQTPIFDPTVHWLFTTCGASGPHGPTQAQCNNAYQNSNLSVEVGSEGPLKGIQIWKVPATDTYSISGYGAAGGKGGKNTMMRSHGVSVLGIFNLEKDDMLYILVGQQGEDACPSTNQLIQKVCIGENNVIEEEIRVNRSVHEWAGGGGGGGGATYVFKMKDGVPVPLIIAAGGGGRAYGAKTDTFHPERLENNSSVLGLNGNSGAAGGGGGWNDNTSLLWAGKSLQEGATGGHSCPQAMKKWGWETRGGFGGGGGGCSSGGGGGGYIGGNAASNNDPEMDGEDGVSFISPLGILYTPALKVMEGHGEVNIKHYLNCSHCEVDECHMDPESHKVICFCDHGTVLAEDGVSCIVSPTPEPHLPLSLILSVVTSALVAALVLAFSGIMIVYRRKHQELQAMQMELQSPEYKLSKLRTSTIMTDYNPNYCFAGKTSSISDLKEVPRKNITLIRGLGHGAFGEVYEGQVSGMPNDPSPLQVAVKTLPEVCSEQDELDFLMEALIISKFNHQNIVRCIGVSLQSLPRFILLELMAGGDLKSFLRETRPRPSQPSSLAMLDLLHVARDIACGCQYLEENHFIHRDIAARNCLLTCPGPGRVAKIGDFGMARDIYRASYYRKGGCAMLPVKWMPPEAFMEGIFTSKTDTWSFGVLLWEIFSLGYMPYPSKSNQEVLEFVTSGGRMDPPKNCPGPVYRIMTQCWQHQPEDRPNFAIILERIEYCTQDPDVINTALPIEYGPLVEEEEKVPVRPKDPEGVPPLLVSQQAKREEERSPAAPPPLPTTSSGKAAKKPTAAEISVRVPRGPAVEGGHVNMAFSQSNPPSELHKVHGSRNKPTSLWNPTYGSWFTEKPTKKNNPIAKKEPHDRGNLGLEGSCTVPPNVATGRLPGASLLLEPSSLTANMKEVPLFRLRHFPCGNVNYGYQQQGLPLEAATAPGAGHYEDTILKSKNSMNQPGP
T2 sequence (P07949 29-1114): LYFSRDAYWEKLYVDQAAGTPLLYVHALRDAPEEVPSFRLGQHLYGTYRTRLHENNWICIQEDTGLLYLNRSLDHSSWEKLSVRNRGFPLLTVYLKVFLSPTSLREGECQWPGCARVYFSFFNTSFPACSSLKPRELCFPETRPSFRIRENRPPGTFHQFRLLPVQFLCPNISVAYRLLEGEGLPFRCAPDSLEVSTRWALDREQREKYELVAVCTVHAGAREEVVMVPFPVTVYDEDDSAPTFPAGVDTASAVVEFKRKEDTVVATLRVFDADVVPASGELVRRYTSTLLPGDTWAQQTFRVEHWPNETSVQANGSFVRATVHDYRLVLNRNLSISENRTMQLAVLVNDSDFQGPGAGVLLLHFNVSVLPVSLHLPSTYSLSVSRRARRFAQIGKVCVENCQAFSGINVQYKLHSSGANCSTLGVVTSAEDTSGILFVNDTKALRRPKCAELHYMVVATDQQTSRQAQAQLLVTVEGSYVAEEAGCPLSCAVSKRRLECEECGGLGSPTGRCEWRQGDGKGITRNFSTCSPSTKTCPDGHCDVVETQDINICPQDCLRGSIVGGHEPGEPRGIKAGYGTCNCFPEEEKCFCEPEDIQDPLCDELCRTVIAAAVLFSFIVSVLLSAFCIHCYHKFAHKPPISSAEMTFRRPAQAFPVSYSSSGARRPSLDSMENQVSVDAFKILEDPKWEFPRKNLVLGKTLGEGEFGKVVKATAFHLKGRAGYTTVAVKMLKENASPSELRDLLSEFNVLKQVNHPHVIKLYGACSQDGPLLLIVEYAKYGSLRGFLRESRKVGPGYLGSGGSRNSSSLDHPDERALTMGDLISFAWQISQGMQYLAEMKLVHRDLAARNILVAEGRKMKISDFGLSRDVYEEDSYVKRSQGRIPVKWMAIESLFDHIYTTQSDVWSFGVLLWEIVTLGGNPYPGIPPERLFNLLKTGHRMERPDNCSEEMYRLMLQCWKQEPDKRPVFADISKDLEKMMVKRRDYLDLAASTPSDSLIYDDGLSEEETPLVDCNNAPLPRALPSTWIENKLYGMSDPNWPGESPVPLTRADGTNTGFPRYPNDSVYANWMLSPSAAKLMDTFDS

As for `CC(=O)c1ccc2[nH]c3ncc(Cl)cc3c2c1` [R253, 6-acetyl-3-chloro-9H-pyrido[2,3-b]indole], the IC50 in test [1] is more than 20 µM. The GI50 in test [2] and in test [3] was more than 20 µM in each case.

As for `COc1ccc(-c2ccc3[nH]c4ncccc4c3c2)cc1` [R268], the IC50 in test [1] is more than 25 µM; at Recombinant Ret protein, 3.3 ± 1.5 µM; in test [4], 0.6 µM; in test [5], 3.6 ± 0.19 µM. Moreover, the GI50 in test [2] and in test [3] was more than 25 µM in each case.

In the case of `COc1ccc(-c2ccc3[nH]c4ncc(/C=C/c5ccccc5)cc4c3c2)cc1` [R315, 6-(4-methoxyphenyl)-3-(2′-phenylethenyl)-9H-pyrido[2,3-b]indole], the IC50 in test [1] was determined as 25 ± 10 µM; at Recombinant ALK kinase (setting [6]), 1.1 ± 0.3 µM; in test [4] it was 2 µM; in the test on ALK-negative U937 cells, 21 µM; in test [5], 6.5 µM. Also, the GI50 in test [2] amounted to 3.9 ± 1.1 µM.

`CN1CCN(CCOc2ccc(-c3ccc4[nH]c5ncc(Cl)cc5c4c3)cc2)CC1` [R347, 3-chloro-6-(4-(2-(4-methylpiperazin-1-yl)ethoxy)phenyl)-9H-pyrido[2,3-b]indole]: the IC50 in test [1] is 2.4 µM; on Recombinant ALK kinase (setting [6]), 7.8 ± 0.9 µM; in test [4] it was 2.6 µM; with ALK-negative U937 cells, 4.6 µM. Besides, the GI50 in test [2] stood at 2.5 µM.

Take `COc1ccc(/C=C/c2ccc3[nH]c4ncc(Cl)cc4c3c2)cc1` [R350, (E)-3-chloro-6-(2′-(4-methoxyphenyl)ethenyl)-9H-pyrido[2,3-b]indole]: the IC50 in test [1] was more than 100 µM; at Recombinant ALK kinase (setting [7]), 5.1 µM; at Recombinant ALK kinase (repeated determinations, 2nd or 'then', read-out: ALK IC50, 2nd / subsequent determination), 35 µM; in test [4], more than 100 µM; with ALK-negative U937 cells, more than 100 µM. Further, the “ALK IC50, 3rd determination” value on Recombinant ALK kinase (repeated determinations, 3rd) was “inactive”. Besides, the GI50 in test [2] was more than 100 µM.

For the compound `Clc1cnc2[nH]c3ccc(CCc4ccccc4)cc3c2c1` [R351, 3-chloro-6-(2′-phenylethyl)-9H-pyrido[2,3-b]indole], the IC50 in test [1] is more than 100 µM; at Recombinant ALK kinase (setting [7]), 66 µM; in test [4], 7.6 µM; with ALK-negative U937 cells, 23 µM. At Recombinant ALK kinase (setting [8]), the “ALK IC50, 2nd / subsequent determination” value is “inactive”. In addition, the GI50 in test [2] is more than 100 µM.

In the case of `COc1cccc(Nc2cnc3[nH]c4ccc(CCc5ccccc5)cc4c3c2)c1` [R352, N-(3-methoxyphenyl)-6-(2′-phenylethyl)-9H-pyrido[2,3-b]indol-3-amine], the IC50 in test [1] came out at 5.3 µM; at Recombinant ALK kinase (setting [7]), 19 µM; in test [4], 8.6 µM; in the test with ALK-negative U937 cells, 13 µM. Moreover, the “ALK IC50, 2nd / subsequent determination” value on Recombinant ALK kinase (setting [8]) was “inactive”. Besides, in test [2], the GI50 was determined as 5.2 µM.

`c1ccc(CCc2ccc3[nH]c4ncc(-c5ccc6c(c5)OCO6)cc4c3c2)cc1` [R354, 3-(benzo[d][1,3]dioxol-5-yl)-6-(2′-phenylethyl)-9H-pyrido[2,3-b]indole]: the IC50 was 27 µM in test [1], 13 µM on Recombinant ALK kinase (setting [6]), 25 µM in test [4] and 27 µM with ALK-negative U937 cells. The GI50 in test [2] was 22 µM.
